Measurements: PubChem BioAssay AID2060906 (Molecular Pharmacology Branch, DTP, NCI, 2025)

Tested on: 485176-168-R4-J1-PDC complex spheroid growth
Experiment: Anticancer human tumor 485176-168-R4-J1-PDC patient-derived pancreatic adenocarcinoma cell line growth inhibition [RAS]
Conditions: for viability, T/C: stronger effect = lower value; active = viability on the fitted dose curve at most 10% of control; inactive = the rest
Outline: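 Tumour cells grown as complex spheroids with HUVEC endothelial cells and mesenchymal stem cells, treated with RAS pathway inhibitor combinations. Each agent spans half-log steps from near clinical Cmax, or 10 microM where Cmax is unknown.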

[1] = curve of first compound, second compound 0.000949 µM
[2] = curve of first compound, second compound 0.003 µM
[3] = curve of first compound, second compound 0.00949 µM
[4] = curve of first compound, second compound 0.03 µM
[5] = curve of first compound, second compound 0.0949 µM
[6] = curve of first compound, second compound 0.3 µM
[7] = second compound 0.000949 µM, first compound 0.0316 µM
[8] = second compound 0.000949 µM, first compound 0.1 µM
[9] = second compound 0.000949 µM, first compound 0.316 µM
[10] = second compound 0.000949 µM, first compound 1 µM
[11] = second compound 0.000949 µM, first compound 3.16 µM
[12] = second compound 0.000949 µM, first compound 10 µM
[13] = second compound 0.003 µM, first compound 0.0316 µM
[14] = second compound 0.003 µM, first compound 0.1 µM
[15] = second compound 0.003 µM, first compound 0.316 µM
[16] = second compound 0.003 µM, first compound 1 µM
[17] = second compound 0.003 µM, first compound 3.16 µM
[18] = second compound 0.003 µM, first compound 10 µM
[19] = second compound 0.00949 µM, first compound 0.0316 µM
[20] = second compound 0.00949 µM, first compound 0.1 µM
[21] = second compound 0.00949 µM, first compound 0.316 µM
[22] = second compound 0.00949 µM, first compound 1 µM
[23] = second compound 0.00949 µM, first compound 3.16 µM
[24] = second compound 0.00949 µM, first compound 10 µM
[25] = second compound 0.03 µM, first compound 0.0316 µM
[26] = second compound 0.03 µM, first compound 0.1 µM
[27] = second compound 0.03 µM, first compound 0.316 µM
[28] = second compound 0.03 µM, first compound 1 µM
[29] = second compound 0.03 µM, first compound 3.16 µM
[30] = second compound 0.03 µM, first compound 10 µM
[31] = second compound 0.0949 µM, first compound 0.0316 µM
[32] = second compound 0.0949 µM, first compound 0.1 µM
[33] = second compound 0.0949 µM, first compound 0.316 µM
[34] = second compound 0.0949 µM, first compound 1 µM
[35] = second compound 0.0949 µM, first compound 3.16 µM
[36] = second compound 0.0949 µM, first compound 10 µM
[37] = second compound 0.3 µM, first compound 0.0316 µM
[38] = second compound 0.3 µM, first compound 0.1 µM
[39] = second compound 0.3 µM, first compound 0.316 µM
[40] = second compound 0.3 µM, first compound 1 µM
[41] = second compound 0.3 µM, first compound 3.16 µM
[42] = second compound 0.3 µM, first compound 10 µM
[43] = curve of first compound, second compound 0.00316 µM
[44] = curve of first compound, second compound 0.01 µM
[45] = curve of first compound, second compound 0.0316 µM
[46] = curve of first compound, second compound 0.1 µM
[47] = curve of first compound, second compound 0.316 µM
[48] = curve of first compound, second compound 1 µM
[49] = second compound 0.00316 µM, first compound 0.0316 µM
[50] = second compound 0.00316 µM, first compound 0.1 µM
[51] = second compound 0.00316 µM, first compound 0.316 µM
[52] = second compound 0.00316 µM, first compound 1 µM
[53] = second compound 0.00316 µM, first compound 3.16 µM
[54] = second compound 0.00316 µM, first compound 10 µM
[55] = second compound 0.01 µM, first compound 0.0316 µM
[56] = second compound 0.01 µM, first compound 0.1 µM
[57] = second compound 0.01 µM, first compound 0.316 µM
[58] = second compound 0.01 µM, first compound 1 µM
[59] = second compound 0.01 µM, first compound 3.16 µM
[60] = second compound 0.01 µM, first compound 10 µM
[61] = second compound 0.0316 µM, first compound 0.0316 µM
[62] = second compound 0.0316 µM, first compound 0.1 µM
[63] = second compound 0.0316 µM, first compound 0.316 µM
[64] = second compound 0.0316 µM, first compound 1 µM
[65] = second compound 0.0316 µM, first compound 3.16 µM
[66] = second compound 0.0316 µM, first compound 10 µM
[67] = second compound 0.1 µM, first compound 0.0316 µM
[68] = second compound 0.1 µM, first compound 0.1 µM
[69] = second compound 0.1 µM, first compound 0.316 µM
[70] = second compound 0.1 µM, first compound 1 µM
[71] = second compound 0.1 µM, first compound 3.16 µM
[72] = second compound 0.1 µM, first compound 10 µM
[73] = second compound 0.316 µM, first compound 0.0316 µM
[74] = second compound 0.316 µM, first compound 0.1 µM
[75] = second compound 0.316 µM, first compound 0.316 µM
[76] = second compound 0.316 µM, first compound 1 µM
[77] = second compound 0.316 µM, first compound 3.16 µM
[78] = second compound 0.316 µM, first compound 10 µM
[79] = second compound 1 µM, first compound 0.0316 µM
[80] = second compound 1 µM, first compound 0.1 µM
[81] = second compound 1 µM, first compound 0.316 µM
[82] = second compound 1 µM, first compound 1 µM
[83] = second compound 1 µM, first compound 3.16 µM
[84] = second compound 1 µM, first compound 10 µM
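Also: spheroids exposed to compounds for seven days before readout.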
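For viability, T/C in this document: luminescence viability expressed relative to DMSO vehicle wells set as 100%.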

CC(Nc1ccc2c(c1)OCCn1cc(N3C(=O)OCC3C(F)F)nc1-2)C(N)=O (centres undefined) + CCn1c(-c2cc(N3CCN(C)CC3)cnc2C(C)OC)c2c3cc(ccc31)-c1csc(n1)CC(NC(=O)C1CC1C)C(=O)N1CCCC(N1)C(=O)OCC(C)(C)C2
> 10000 nM: IC50 [1] | IC50 [2] | IC50 [6]
inactive: viability, T/C [7] 100% | viability, T/C [8] 91.9% | viability, T/C [9] 71.8% | viability, T/C [10] 79.8% | viability, T/C [11] 70.5% | viability, T/C [12] 51.1% | viability, T/C [13] 92.8% | viability, T/C [14] 74.8% | viability, T/C [15] 73.7% | viability, T/C [16] 72% | viability, T/C [17] 61.3% | viability, T/C [18] 47% | viability, T/C [19] 81.5% | viability, T/C [20] 72.7% | viability, T/C [21] 76.9% | viability, T/C [22] 76.1% | viability, T/C [23] 62.2% | viability, T/C [24] 46.7% | viability, T/C [25] 75.9% | viability, T/C [26] 78.5% | viability, T/C [27] 69.3% | viability, T/C [28] 60.5% | viability, T/C [29] 58% | viability, T/C [30] 48.1% | viability, T/C [31] 66.9% | viability, T/C [32] 83.7% | viability, T/C [33] 77.1% | viability, T/C [34] 51.9% | viability, T/C [35] 56.8% | viability, T/C [36] 41.2% | viability, T/C [37] 75.6% | viability, T/C [38] 72.3% | viability, T/C [39] 57.6% | viability, T/C [40] 57.7% | viability, T/C [41] 51.3% | viability, T/C [42] 51.2%
2110 nM: IC50 [5]
7940 nM: IC50 [3]
7650 nM: IC50 [4]

CC1(O)CCCC1n1c(=O)c(C(F)F)cc2cnc(NC3CCN(S(C)(=O)=O)CC3)nc21 (centres undefined) + C=CC(=O)N1CCN(c2nc(OCC3CCCN3C)nc3c(F)c(-c4nc(N)cc(C)c4C(F)(F)F)c(Cl)cc23)C(C)C1
active: viability, T/C [54] 4.16% | viability, T/C [60] 2.59% | viability, T/C [66] 2.26% | viability, T/C [72] 3.32% | viability, T/C [78] 3.67%
1810 nM: IC50 [48]
1970 nM: IC50 [43]
2220 nM: IC50 [46]
inactive: viability, T/C [49] 97% | viability, T/C [50] 77.5% | viability, T/C [51] 59% | viability, T/C [52] 60.3% | viability, T/C [53] 55.9% | viability, T/C [55] 80.2% | viability, T/C [56] 61.8% | viability, T/C [57] 66.7% | viability, T/C [58] 67.7% | viability, T/C [59] 43.9% | viability, T/C [61] 91.2% | viability, T/C [62] 81.6% | viability, T/C [63] 70.2% | viability, T/C [64] 58% | viability, T/C [65] 51.5% | viability, T/C [67] 91.8% | viability, T/C [68] 74.5% | viability, T/C [69] 68.9% | viability, T/C [70] 68.7% | viability, T/C [71] 45% | viability, T/C [73] 103% | viability, T/C [74] 62.5% | viability, T/C [75] 73.4% | viability, T/C [76] 68.1% | viability, T/C [77] 62% | viability, T/C [79] 104% | viability, T/C [80] 86.8% | viability, T/C [81] 69.4% | viability, T/C [82] 49.1% | viability, T/C [83] 62.6% | viability, T/C [84] 2.11%
2340 nM: IC50 [44]
3650 nM: IC50 [47]
2090 nM: IC50 [45]

C#Cc1c(F)ccc2cc(O)cc(-c3ncc4c(N5CC6CCC(C5)N6)nc(OCC56CCCN5CC(F)C6)nc4c3F)c12 (centres undefined)
> 10000 nM: IC50 (compound alone, run of 06/10/2024)
inactive: viability, T/C (compound 0.1 µM) 102% [middle of 8 runs] | viability, T/C (compound 0.316 µM) 97.6% [middle of 8 runs] | viability, T/C (compound 1 µM) 94% [middle of 8 runs] | viability, T/C (compound 3.16 µM) 99.5% [middle of 8 runs] | viability, T/C (compound 10 µM) 95.7% [middle of 8 runs]

CCC(CC)c1cc(NC2CCC(N)C2)n2nccc2n1 (centres undefined) + C=CC(=O)N1CCN(c2nc(OCC3CCCN3C)nc3c(F)c(-c4nc(N)cc(C)c4C(F)(F)F)c(Cl)cc23)C(C)C1
active: viability, T/C [53] 3.09% | viability, T/C [54] 0.53% | viability, T/C [59] 3.14% | viability, T/C [60] 0.53% | viability, T/C [65] 2.99% | viability, T/C [66] 0.57% | viability, T/C [71] 3.12% | viability, T/C [72] 0.5% | viability, T/C [77] 3.3% | viability, T/C [78] 0.53% | viability, T/C [83] 2.65% | viability, T/C [84] 0.64%
1510 nM: IC50 [47]
inactive: viability, T/C [49] 103% | viability, T/C [50] 101% | viability, T/C [51] 102% | viability, T/C [52] 78.5% | viability, T/C [55] 111% | viability, T/C [56] 98.3% | viability, T/C [57] 77.1% | viability, T/C [58] 72.9% | viability, T/C [61] 101% | viability, T/C [62] 103% | viability, T/C [63] 103% | viability, T/C [64] 72.9% | viability, T/C [67] 97.7% | viability, T/C [68] 104% | viability, T/C [69] 93.3% | viability, T/C [70] 88.8% | viability, T/C [73] 87.8% | viability, T/C [74] 93.5% | viability, T/C [75] 95.3% | viability, T/C [76] 76.2% | viability, T/C [79] 94.8% | viability, T/C [80] 110% | viability, T/C [81] 89.6% | viability, T/C [82] 73.3%
1460 nM: IC50 [45] | IC50 [48]
1680 nM: IC50 [46]
1540 nM: IC50 [43]
1450 nM: IC50 [44]

Cc1nc(N2CCC3(CC2)COC(C)C3N)c(CO)nc1Sc1ccnc(N)c1Cl (centres undefined) + CCn1c(-c2cc(N3CCN(C)CC3)cnc2C(C)OC)c2c3cc(ccc31)-c1csc(n1)CC(NC(=O)C1CC1C)C(=O)N1CCCC(N1)C(=O)OCC(C)(C)C2
inactive: viability, T/C [7] 90.6% | viability, T/C [8] 83.5% | viability, T/C [9] 84.1% | viability, T/C [10] 72.8% | viability, T/C [11] 77.5% | viability, T/C [12] 75.7% | viability, T/C [13] 82.7% | viability, T/C [14] 68.7% | viability, T/C [15] 87.8% | viability, T/C [16] 83.6% | viability, T/C [17] 83.8% | viability, T/C [18] 82.8% | viability, T/C [19] 94.3% | viability, T/C [20] 80.1% | viability, T/C [21] 80.4% | viability, T/C [22] 78.5% | viability, T/C [23] 77.2% | viability, T/C [24] 68% | viability, T/C [25] 77.1% | viability, T/C [26] 74.6% | viability, T/C [27] 94.7% | viability, T/C [28] 82.5% | viability, T/C [29] 90% | viability, T/C [30] 63.4% | viability, T/C [31] 85.2% | viability, T/C [32] 93.2% | viability, T/C [33] 59.9% | viability, T/C [34] 75% | viability, T/C [35] 80.7% | viability, T/C [36] 70.4% | viability, T/C [37] 78.8% | viability, T/C [38] 72.9% | viability, T/C [39] 63.2% | viability, T/C [40] 56.9% | viability, T/C [41] 76.5% | viability, T/C [42] 65.3%
> 10000 nM: IC50 [1] | IC50 [2] | IC50 [3] | IC50 [4] | IC50 [5] | IC50 [6]
